The source of these data is patent US12258332B2, “ASGPR cell surface receptor binding compounds and conjugates” (Lycia Therapeutics, Inc., priority 2021, dated 2025).

Each structure is given as a SMILES string. “Also recorded” adds a separate entry of the source.

Data set [1] deals with HepG2 cells. The experiment in a line: Uptake of IgG2a antibody conjugates into HepG2 cells. Type of data set: cell-based, human. To be noted: one hour incubation. The method, then:
The uptake of antibody conjugates of exemplary M6PR or ASGPR binding compounds was assessed in Hep G2 cells, using a method similar to that described in Example above.

The test system of data set [2] is HepG2 cells. The experiment in a line: Uptake of Alexa488-labelled target IgE bound to omalizumab (OMA) conjugates in HepG2 cells, flow cytometry. It counts as cell-based, human. The conditions noted are these: omalizumab (anti-IgE) conjugate bound to IgE-Alexa488, equal molar ratios; 1 hour. The procedure: (§1) The omalizumab conjugates of Example 60 were bound to IgE-Alexa488 (prepared according to Example 62), as follows: equal molar ratios of omalizumab (anti-IgE) conjugate and IgE-Alexa488 were added in tissue culture media for 30 minutes at room temperature. The resulting anti-IgE conjugate:IgE antibody-Alexa488 compositions were added to HepG2 cells (100 k cells/50 ul per well, n=2), and Alexa488 fluorescence levels in the cells were measured at 1 hour by flow cytometry. As the fluorescently labelled target (IgE antibody) accumulates in cells, the fluorescence presents a way to measure total intracellular uptake by cells over time.
as §1, with “OMA Ab” for “The omalizumab”, “example compounds I-160-I-163 and I-141” for “Example 60”, “by adapting procedure in” for “according to”, “61),” for “62),”, “OMA(anti-IgE)” for “omalizumab (anti-IgE)”
(In flow cytometry, cells or beads pass a laser one at a time.)

Data set [3] concerns IgE. The experiment in a line: Pharmacodynamic study: clearance of target IgE by OMA conjugates in mice, serum hIgE by ELISA. Type of data set: in vivo, C57BL/6 mice. The conditions noted are these: 0.1 mg/kg of OMA conjugate, IgE 1 mg/kg. The method, then: Protocol: Female C57BL/6 mice were IV dosed 1 mg/kg of IgE followed by 0.1, 0.3, 1, or 3 mg/kg of OMA-I-163 16 hours later. Serum samples were collected at 0 (pre-bleed), 1, 4, and 24 hours after OMA-I-163 dose with 3 animals per timepoint.
Serum hIgE and hIgG concentrations were measured by ELISA.
Protocol: Female C57BL/6 mice were IV dosed 1 mg/kg of IgE followed by 0.1 mg/kg of OMA-I-163, OMA-I-162, OMA-I-161, and OMA-I-160 16 hours later. Serum samples were collected at 0 (pre-bleed), 1, 4, and 24 hours after LYTAC dose with 3 animals per timepoint.
Serum concentrations were measured by Elisa.
A general note: In an ELISA, binding on a coated surface is turned into a signal by an enzyme label.

Data set [4] in a line: Pharmacokinetic study of OMA-linked compounds in mice, serum hIgG by ELISA. To be noted: IV 5 mg/kg, female C57BL/6 mice, up to 168 hours. It counts as in vivo. The procedure: Pharmacokinetic (PK) studies were undertaken to determine the pharmacokinetic profile of various OMA linked example compounds (I-161-I-163).
Protocol: Female C57BL/6 mice are dosed via IV with 5 mg/kg of OMA-example compounds, and OMA-reference. Serum samples are collected at 0.083, 0.25, 0.5, 1, 2, 4, 8, 24, 48, 72, and 168 hours after dosing with 3 animals per timepoint.
Serum hIgG concentrations were measured by ELISA.

Consider `CC(=O)N[C@H]1[C@H](OCCCCC(=O)NCCCNC(=O)CCOCC(COCCC(=O)NCCCNC(=O)CCCCO[C@@H]2O[C@H](CO)[C@H](O)[C@H](O)[C@H]2NC(C)=O)(COCCC(=O)NCCCNC(=O)CCCCO[C@@H]2O[C@H](CO)[C@H](O)[C@H](O)[C@H]2NC(C)=O)NC(=O)CCCCCCCCCCC(=O)Oc2c(F)c(F)c(F)c(F)c2F)O[C@H](CO)[C@H](O)[C@@H]1O` [Compound 1209], for which the “HepG2 cellular uptake of antibody conjugate (cell fluorescence, MFI)” value (“HepG2 cellular uptake” below) in data set [1] is “comparable HepG2 cellular uptake”. As to `CC(=O)N[C@@H]1[C@@H](O)[C@@H](O)[C@@H](CO)O[C@H]1SCCC(=O)NCCCCCNC(=O)CCOCC(COCCC(=O)NCCCCCNC(=O)CCS[C@@H]1O[C@H](CO)[C@H](O)[C@H](O)[C@H]1NC(C)=O)(COCCC(=O)NCCCCCNC(=O)CCS[C@@H]1O[C@H](CO)[C@H](O)[C@H](O)[C@H]1NC(C)=O)NC(=O)CCCCCCCCCCC(=O)Oc1c(F)c(F)c(F)c(F)c1F` [Compound I-141, perfluorophenyl 1-(((2S,3R,4R,5R,6R)-3-acetamido-4,5-dihydroxy-6-(hydroxymethyl)tetrahydro-2H-pyran-2-yl)thio)-16,16-bis((3-((5-(3-(((2S,3R,4R,5R,6R)-3-acetamido-4,5-dihydroxy-6-(hydroxymethyl)tetrahydro-2H-pyran-2-yl)thio)propanamido)pentyl)amino)-3-oxopropoxy)methyl)-3,11,18-trioxo-14-oxa-4,10,17-triazanonacosan-29-oate], the “relative uptake activity of Alexa488 labeled-target IgE in HepG2 cells” value (shortened to “relative uptake activity”) in data set [2] is on record as “superior uptake to that of the 0-glycoside”. `CC(=O)N[C@@H]1[C@@H](O)[C@@H](O)[C@@H](CO)O[C@H]1Cc1cn(CCOCCOCCOCCNC(=O)CCC(CCC(=O)NCCOCCOCCOCCn2cc(C[C@@H]3O[C@H](CO)[C@H](O)[C@H](O)[C@H]3NC(C)=O)nn2)(CCC(=O)NCCOCCOCCOCCn2cc(C[C@@H]3O[C@H](CO)[C@H](O)[C@H](O)[C@H]3NC(C)=O)nn2)NC(=O)CCCCCCCCCCC(=O)NCCN2C(=O)C=CC2=O)nn1` [Compound I-160]: in data set [3], the “IgE clearance efficiency compared to reference OMA-I-163” value is reported as “clear IgE more efficiently than the reference compound”. In addition, in data set [2], the “relative uptake activity” value was “most active anomeric position variants”. In data set [4], the “PK profile / clearance of OMA-linked compound (serum hIgG)” value is on record as “distinct PK profiles from reference compound I-163”. Taken in the same sequence, the figures for `CC(=O)N[C@@H]1[C@@H](O)[C@@H](O)[C@@H](CO)C[C@H]1n1cc(COCCOCCOCCNC(=O)CCC(CCC(=O)NCCOCCOCCOCc2cn([C@@H]3O[C@H](CO)[C@H](O)[C@H](O)[C@H]3NC(C)=O)nn2)(CCC(=O)NCCOCCOCCOCc2cn([C@@H]3O[C@H](CO)[C@H](O)[C@H](O)[C@H]3NC(C)=O)nn2)NC(=O)CCCCCCCCCCC(=O)NCCN2C(=O)C=CC2=O)nn1` [Compound I-161] were “clear IgE more efficiently than the reference compound”, “essentially identical activity to the reference conjugate; also recorded: most active anomeric position variants” and “distinct PK profiles from reference compound I-163”.

In the case of `CC(=O)N[C@H]1[C@H](OCCCCC(=O)NCCCNC(=O)CCOCC(COCCC(=O)NCCCNC(=O)CCCCO[C@@H]2O[C@H](CO)[C@H](O)[C@H](O)[C@H]2NC(C)=O)(COCCC(=O)NCCCNC(=O)CCCCO[C@@H]2O[C@H](CO)[C@H](O)[C@H](O)[C@H]2NC(C)=O)NC(=O)CCCCCCCCCCCN2C(=O)C=CC2=O)O[C@H](CO)[C@H](O)[C@@H]1O` [Compound 1210], the “HepG2 cellular uptake” value in data set [1] is on record as “comparable HepG2 cellular uptake”. For `CC(=O)N[C@@H]1[C@@H](O)[C@@H](O)[C@@H](CO)O[C@H]1Cc1cn(CCOCCOCCOCCNC(=O)CCC(CCC(=O)NCCOCCOCCOCCn2cc(C[C@@H]3O[C@H](CO)[C@H](O)[C@H](O)[C@H]3NC(C)=O)nn2)(CCC(=O)NCCOCCOCCOCCn2cc(C[C@@H]3O[C@H](CO)[C@H](O)[C@H](O)[C@H]3NC(C)=O)nn2)NC(=O)CCCCCCCCCCC(=O)Oc2c(F)c(F)c(F)c(F)c2F)nn1` [Compound I-140, perfluorophenyl 1-(4-(((2S,3R,4R,5R,6R)-3-acetamido-4,5-dihydroxy-6-(hydroxymethyl)tetrahydro-2H-pyran-2-yl)methyl)-1H-1,2,3-triazol-1-yl)-16,16-bis(1-(4-(((2S,3R,4R,5R,6R)-3-acetamido-4,5-dihydroxy-6-(hydroxymethyl)tetrahydro-2H-pyran-2-yl)methyl)-1H-1,2,3-triazol-1-yl)-13-oxo-3,6,9-trioxa-12-azapentadecan-15-yl)-13,18-dioxo-3,6,9-trioxa-12,17-diazanonacosan-29-oate], the “relative uptake activity” value in data set [2] is given as “comparable activity to the conjugate having the 0-glycoside”. On the same count and under the same terms, as for `CC(=O)N[C@H]1[C@H](OCCCCC(=O)NCCCNC(=O)CCOCC(COCCC(=O)NCCCNC(=O)CCCCO[C@@H]2O[C@H](CO)[C@H](O)[C@H](O)[C@H]2NC(C)=O)(COCCC(=O)NCCCNC(=O)CCCCO[C@@H]2O[C@H](CO)[C@H](O)[C@H](O)[C@H]2NC(C)=O)NC(=O)CCOCCOCCOCCOCCC(=O)Oc2c(F)c(F)c(F)c(F)c2F)O[C@H](CO)[C@H](O)[C@@H]1O` [Compound I-145], the entry is “superior uptake to conjugates having a valency of 2 or 1”; as for `CC(=O)N[C@H]1[C@H](OCCCCC(=O)NCCCNC(=O)CCOCC(COCCC(=O)NCCCNC(=O)CCCCO[C@@H]2O[C@H](CO)[C@H](O)[C@H](O)[C@H]2NC(C)=O)(COCCC(=O)NCCCNC(=O)CCCCO[C@@H]2O[C@H](CO)[C@H](O)[C@H](O)[C@H]2NC(C)=O)NC(=O)CCc2cn(CCOCCOCCOCCOCCOCCOCCOCCOCCOCCOCCOCCOCCOCCOCCOCCOCCOCCOCCOCCOCCOCCOCCOCCOCCC(=O)Oc3c(F)c(F)c(F)c(F)c3F)nn2)O[C@H](CO)[C@H](O)[C@@H]1O` [Compound I-137], “comparable activity to the reference conjugate; also recorded: comparable activity to a reference conjugate”; as for `CO[C@@H]1O[C@H](CO)[C@H](O)[C@H](O)[C@H]1NC(=O)COCCc1cn(CCOCCOCCNC(=O)CCC(CCC(=O)NCCOCCOCCn2cc(CCOCC(=O)N[C@H]3[C@H](OC)O[C@H](CO)[C@H](O)[C@@H]3O)nn2)(CCC(=O)NCCOCCOCCn2cc(CCOCC(=O)N[C@H]3[C@H](OC)O[C@H](CO)[C@H](O)[C@@H]3O)nn2)NC(=O)CCCCCCCCCCC(=O)Oc2c(F)c(F)c(F)c(F)c2F)nn1` [Compound I-155], “less active than the 1-position linked conjugate”. As to `O=C(CCOCCOCCOCCOCCn1cc(CCCCNC(=S)Nc2ccc(O[C@H]3O[C@H](CCP(=O)(O)O)[C@@H](O)[C@H](O)[C@@H]3O)cc2)nn1)Oc1c(F)c(F)c(F)c(F)c1F` [Compound 520, reference compound], the “HepG2 cellular uptake” value in data set [1] is on record as “comparable HepG2 cellular uptake; also recorded: comparable robust uptake into HepG2 cells”. `CC(=O)N[C@@H]1[C@@H](O)[C@@H](O)[C@@H](CO)O[C@H]1n1cc(COCCOCCOCCNC(=O)CCC(CCC(=O)NCCOCCOCCOCc2cn([C@@H]3O[C@H](CO)[C@H](O)[C@H](O)[C@H]3NC(C)=O)nn2)(CCC(=O)NCCOCCOCCOCc2cn([C@@H]3O[C@H](CO)[C@H](O)[C@H](O)[C@H]3NC(C)=O)nn2)NC(=O)CCCCCCCCCCC(=O)Oc2c(F)c(F)c(F)c(F)c2F)nn1` [Compound I-143, perfluorophenyl 1-(1-((2R,3R,4R,5R,6R)-3-acetamido-4,5-dihydroxy-6-(hydroxymethyl)tetrahydro-2H-pyran-2-yl)-1H-1,2,3-triazol-4-yl)-15,15-bis(1-(1-((2R,3R,4R,5R,6R)-3-acetamido-4,5-dihydroxy-6-(hydroxymethyl)tetrahydro-2H-pyran-2-yl)-1H-1,2,3-triazol-4-yl)-12-oxo-2,5,8-trioxa-11-azatetradecan-14-yl)-12,17-dioxo-2,5,8-trioxa-11,16-diazaoctacosan-28-oate]: the “relative uptake activity” value in data set [2] is given as “superior activity to the reference conjugate”.
